Measured values published in patent US12421208B2, “Chemical compounds” (ASTRAZENECA AB, priority 2020, dated 2025).

Tests used:
DLD1 cells = experiment: PARP proliferation assay (7 day compound dosing), WT DLD1; assay type: cell-based; conditions: Homo sapiens, 168 h; WT DLD-1 cells, 7 day dosing; read-out: WT DLD-1 prolif. 7 d IC50
Experimental: (§1) PARP Proliferation Assay (7 Day Compound Dosing)
(§2) DLD1 and BRCA2 (−/−) DLD1 cells were harvested to a density of 5000 cells/ml and 2.5E4 cells/ml respectively in complete media, 40 μL/well seeded into 384-well plates (Greiner, Kremsmunster, Austria; 781090) using a Multidrop Combi then incubated at 37° C., 5% CO2 overnight. Next day (Day 1) using a Multidrop Combi add sytoxgreen (5 ul, 2 uM) and saponin (10 ul, 0.25% stock) to a day 0 plate, seal the plate using a black adhesive lid and incubate for >3 h at rt. Cells were imaged using Cell Insight (Thermo Fisher) fitted with a 4× objective. Test compounds are added using an Echo 555 and placed in incubator maintained at 37° C., 5% CO2 and incubated for 7 days. On Day 8 add sytox green (5 ul, 2 uM) and then saponin (10 ul, 0.25% stock) to plates, seal the plate using a black adhesive lid and incubate for >3 h at rt. Read all cells on the Cell Insight with 4× Objective. The rate of proliferation is determined in Genedata by assessing the total cell number output from the Cell Insight for Day 0 and Day 8 plates.

hERG = hERG (Homo sapiens, UniProt Q12809); experiment: hERG inhibition
Description: It is well known that blockade of the cardiac ion channel coded by human ether-n-gogo-related gene (hERG) is a risk factor in drug discovery and development. Blockage of hERG can cause safety problems such as cardiac arrhythmia. Advantageously, the compounds of Formula I have low hERG activity.

BRCA2 (−/−) DLD1 cells = experiment: PARP proliferation assay (7 day compound dosing), BRCA2 (−/−) DLD1; assay type: cell-based; conditions: Homo sapiens, DLD-1, 168 h, BRCA2 −/− DLD-1 cells, 7 day dosing; read-out: BRCA2 −/− DLD-1 prolif. 7 d IC50
Experimental: as §1, §2

Chain of hERG (Q12809 whole entry): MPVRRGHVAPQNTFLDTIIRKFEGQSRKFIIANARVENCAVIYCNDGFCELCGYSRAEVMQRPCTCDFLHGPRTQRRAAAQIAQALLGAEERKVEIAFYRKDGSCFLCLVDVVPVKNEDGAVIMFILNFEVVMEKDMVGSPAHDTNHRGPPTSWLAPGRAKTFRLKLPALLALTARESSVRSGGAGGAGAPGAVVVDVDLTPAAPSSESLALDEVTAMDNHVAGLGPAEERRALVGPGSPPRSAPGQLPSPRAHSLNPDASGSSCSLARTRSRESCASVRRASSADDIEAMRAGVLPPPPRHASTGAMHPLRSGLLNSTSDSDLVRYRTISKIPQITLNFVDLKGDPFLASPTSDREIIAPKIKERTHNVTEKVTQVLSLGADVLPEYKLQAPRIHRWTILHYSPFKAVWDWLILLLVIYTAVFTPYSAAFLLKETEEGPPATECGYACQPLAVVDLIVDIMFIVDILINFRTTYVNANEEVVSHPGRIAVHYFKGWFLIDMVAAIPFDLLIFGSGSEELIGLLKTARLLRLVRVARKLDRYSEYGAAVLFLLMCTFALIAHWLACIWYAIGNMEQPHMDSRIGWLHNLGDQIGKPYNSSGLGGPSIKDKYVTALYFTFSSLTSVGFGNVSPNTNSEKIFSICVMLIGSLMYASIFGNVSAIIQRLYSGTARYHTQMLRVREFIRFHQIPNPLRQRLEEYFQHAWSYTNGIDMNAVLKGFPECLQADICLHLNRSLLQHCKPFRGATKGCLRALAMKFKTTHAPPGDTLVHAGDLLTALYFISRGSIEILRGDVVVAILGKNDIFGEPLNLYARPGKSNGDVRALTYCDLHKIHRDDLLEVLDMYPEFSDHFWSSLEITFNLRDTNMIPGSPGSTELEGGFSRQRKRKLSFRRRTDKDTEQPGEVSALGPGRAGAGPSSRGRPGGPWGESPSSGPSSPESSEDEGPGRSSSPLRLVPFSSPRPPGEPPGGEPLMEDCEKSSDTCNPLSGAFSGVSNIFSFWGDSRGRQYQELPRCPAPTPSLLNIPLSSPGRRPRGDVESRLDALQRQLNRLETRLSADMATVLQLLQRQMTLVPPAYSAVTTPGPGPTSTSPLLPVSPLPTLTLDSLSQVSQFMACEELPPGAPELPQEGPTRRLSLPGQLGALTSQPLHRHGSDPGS

Which IC50 (DLD1 cells) does the source give for `CCc1nc2ccc(CN3CCN(c4ccc(C(=O)NC)nc4C(F)F)CC3)c(F)c2[nH]c1=O` [Example 24, 6-(difluoromethyl)-5-[4-[(2-ethyl-5-fluoro-3-oxo-4H-quinoxalin-6-yl)methyl]piperazin-1-yl]-N-methyl-pyridine-2-carboxamide] here?
Its IC50 is > 30 µM.

And the IC50 (hERG)?
The IC50 was > 36 µM.

And the IC50 (BRCA2 (−/−) DLD1 cells)?
Its IC50 is 0.003 µM.

How did the IC50 (BRCA2 (−/−) DLD1 cells) turn out when `Cc1nc2ccc(CN3CCN(c4ccc(C(N)=O)nc4F)CC3)c(C)c2[nH]c1=O` [Example 5, 5-[4-[(2,5-dimethyl-3-oxo-4H-quinoxalin-6-yl)methyl]piperazin-1-yl]-6-fluoro-pyridine-2-carboxamide] was run?
Its IC50 is 2.89 µM.

Which results are given for `CCc1nc2ccc(CN3CCN(c4ccc(C(=O)NC)nc4C)CC3)c(F)c2[nH]c1=O` [Example 23, 5-[4-[(2-ethyl-5-fluoro-3-oxo-4H-quinoxalin-6-yl)methyl]piperazin-1-yl]-N,6-dimethyl-pyridine-2-carboxamide]?
IC50 (DLD1 cells): > 30 µM; IC50 (hERG): > 40 µM; IC50 (BRCA2 (−/−) DLD1 cells): 0.003 µM

`CNC(=O)c1ccc(N2CCN(Cc3ccc4nc(OC)c(=O)[nH]c4c3F)CC2)c(Cl)n1` [Example 41, 6-chloro-5-[4-[(5-fluoro-2-methoxy-3-oxo-4H-quinoxalin-6-yl)methyl]piperazin-1-yl]-N-methyl-pyridine-2-carboxamide] was tested. Which IC50 (hERG) did it give?
The IC50 was > 40 µM.

And the IC50 (BRCA2 (−/−) DLD1 cells)?
Its IC50 is 0.007 µM.

`CNC(=O)c1ccc(N2CCN(Cc3ccc4nc(OC)c(=O)[nH]c4c3F)CC2)c(C)n1` [Example 40, 5-[4-[(5-fluoro-2-methoxy-3-oxo-4H-quinoxalin-6-yl)methyl]piperazin-1-yl]-N,6-dimethyl-pyridine-2-carboxamide] was tested. Which IC50 (hERG) did it give?
Its IC50 is > 40 µM.

And the IC50 (BRCA2 (−/−) DLD1 cells)?
Its IC50 is 0.007 µM.

Which results are given for `CNC(=O)c1ccc(N2CCN(Cc3ccc4nc(OC)c(=O)[nH]c4c3F)CC2)c(F)n1` [Example 39, 6-fluoro-5-[4-[(5-fluoro-2-methoxy-3-oxo-4H-quinoxalin-6-yl)methyl]piperazin-1-yl]-N-methyl-pyridine-2-carboxamide]?
IC50 (hERG): > 40 µM; IC50 (BRCA2 (−/−) DLD1 cells): 0.008 µM

How did the IC50 (hERG) turn out when `CNC(=O)c1ccc(N2CCN(Cc3ccc4nc(OC)c(=O)[nH]c4c3F)CC2)cn1` [Example 38, 5-[4-[(5-fluoro-2-methoxy-3-oxo-4H-quinoxalin-6-yl)methyl]piperazin-1-yl]-N-methyl-pyridine-2-carboxamide] was run?
Its IC50 is > 40 µM.

And the IC50 (BRCA2 (−/−) DLD1 cells)?
The IC50 was 0.547 µM.

Which IC50 (BRCA2 (−/−) DLD1 cells) does the source give for `CCc1nc2ccc(CN3CCN(c4ccc(C(=O)NC)nc4)CC3)c(C)c2[nH]c1=O` [Example 44, 5-[4-[(2-ethyl-5-methyl-3-oxo-4H-quinoxalin-6-yl)methyl]piperazin-1-yl]-N-methyl-pyridine-2-carboxamide] here?
Its IC50 is > 30 µM.

Which IC50 (hERG) does the source give for `CNC(=O)c1ccc(N2CCN(Cc3ccc4nc(C(F)(F)F)c(=O)[nH]c4c3F)CC2)c(C)n1` [Example 47, 5-[4-[[5-fluoro-3-oxo-2-(trifluoromethyl)-4H-quinoxalin-6-yl]methyl]piperazin-1-yl]-N,6-dimethyl-pyridine-2-carboxamide] here?
Its IC50 is > 40 µM.

And the IC50 (BRCA2 (−/−) DLD1 cells)?
Its IC50 is 0.058 µM.

What does the source list for `CNC(=O)c1ccc(N2CCN(Cc3ccc4nc(C)c(=O)[nH]c4c3F)CC2)cn1` [Example 32, 5-[4-[(5-fluoro-2-methyl-3-oxo-4H-quinoxalin-6-yl)methyl]piperazin-1-yl]-N-methyl-pyridine-2-carboxamide]?
IC50 (DLD1 cells): 23 µM; IC50 (hERG): > 40 µM; IC50 (BRCA2 (−/−) DLD1 cells): 1.08 µM

Which IC50 (BRCA2 (−/−) DLD1 cells) does the source give for `CCc1nc2ccc(CN3CCN(c4ccc(C(=O)NC)nc4F)CC3)c(C)c2[nH]c1=O` [Example 43, 5-[4-[(2-ethyl-5-methyl-3-oxo-4H-quinoxalin-6-yl)methyl]piperazin-1-yl]-6-fluoro-N-methyl-pyridine-2-carboxamide] here?
The IC50 was 0.01 µM.

How did the IC50 (BRCA2 (−/−) DLD1 cells) turn out when `CCNC(=O)c1ccc(N2CCN(Cc3ccc4nc(C)c(=O)[nH]c4c3F)CC2)c(F)n1` [Example 45, N-ethyl-6-fluoro-5-[4-[(5-fluoro-2-methyl-3-oxo-4H-quinoxalin-6-yl)methyl]piperazin-1-yl]pyridine-2-carboxamide] was run?
The IC50 was 0.006 µM.

Which IC50 (BRCA2 (−/−) DLD1 cells) does the source give for `CNC(=O)c1ccc(N2CCN(Cc3ccc4ncc(=O)[nH]c4c3F)CC2)c(F)n1` [Example 36, 6-fluoro-5-[4-[(5-fluoro-3-oxo-4H-quinoxalin-6-yl)methyl]piperazin-1-yl]-N-methyl-pyridine-2-carboxamide] here?
Its IC50 is 16.2 µM.

Which results are given for `CNC(=O)c1ccc(N2CCN(Cc3ccc4nc(C)c(=O)[nH]c4c3F)CC2)c(C)n1` [Example 31, 5-[4-[(5-fluoro-2-methyl-3-oxo-4H-quinoxalin-6-yl)methyl]piperazin-1-yl]-N,6-dimethyl-pyridine-2-carboxamide]?
IC50 (DLD1 cells): > 30 µM; IC50 (hERG): > 40 µM

Which results are given for `CNC(=O)c1ccc(N2CCN(Cc3ccc4nc(C)c(=O)[nH]c4c3C)CC2)cn1` [Example 2, 5-[4-[(2,5-dimethyl-3-oxo-4H-quinoxalin-6-yl)methyl]piperazin-1-yl]-N-methyl-pyridine-2-carboxamide]?
IC50 (hERG): > 40 µM; IC50 (BRCA2 (−/−) DLD1 cells): 0.734 µM

Which results are given for `CNC(=O)c1ccc(N2CCN(Cc3ccc4nc(C(F)(F)F)c(=O)[nH]c4c3F)CC2)c(Cl)n1` [Example 49, 6-chloro-5-[4-[[5-fluoro-3-oxo-2-(trifluoromethyl)-4H-quinoxalin-6-yl]methyl]piperazin-1-yl]-N-methyl-pyridine-2-carboxamide]?
IC50 (hERG): > 40 µM; IC50 (BRCA2 (−/−) DLD1 cells): 0.041 µM

Which results are given for `CNC(=O)c1ccc(N2CCN(Cc3ccc4nc(C(F)(F)F)c(=O)[nH]c4c3F)CC2)cn1` [Example 50, 5-[4-[[5-fluoro-3-oxo-2-(trifluoromethyl)-4H-quinoxalin-6-yl]methyl]piperazin-1-yl]-N-methyl-pyridine-2-carboxamide]?
IC50 (hERG): > 40 µM; IC50 (BRCA2 (−/−) DLD1 cells): 0.136 µM

`CNC(=O)c1ccc(N2CCN(Cc3ccc4nc(C(F)F)c(=O)[nH]c4c3F)CC2)c(C)n1` [Example 37, 5-[4-[[2-(difluoromethyl)-5-fluoro-3-oxo-4H-quinoxalin-6-yl]methyl]piperazin-1-yl]-N,6-dimethyl-pyridine-2-carboxamide] was tested. Which IC50 (BRCA2 (−/−) DLD1 cells) did it give?
The IC50 was 0.01 µM.

For `CNC(=O)c1ccc(N2CCN(Cc3ccc4ncc(=O)[nH]c4c3F)CC2)c(C)n1` [Example 35, 5-[4-[(5-fluoro-3-oxo-4H-quinoxalin-6-yl)methyl]piperazin-1-yl]-N,6-dimethyl-pyridine-2-carboxamide], which IC50 (DLD1 cells) is on record?
Its IC50 is > 30 µM.

And the IC50 (BRCA2 (−/−) DLD1 cells)?
Its IC50 is 10.3 µM.

Which results are given for `Cc1nc(C(N)=O)ccc1N1CCN(Cc2ccc3nc(C)c(=O)[nH]c3c2C)CC1` [Example 7, 5-[4-[(2,5-dimethyl-3-oxo-4H-quinoxalin-6-yl)methyl]piperazin-1-yl]-6-methyl-pyridine-2-carboxamide]?
IC50 (DLD1 cells): > 30 µM; IC50 (BRCA2 (−/−) DLD1 cells): 8.43 µM

How did the IC50 (BRCA2 (−/−) DLD1 cells) turn out when `CCc1nc2ccc(CN3CCN(c4ccc(C(N)=O)nc4)CC3)c(F)c2[nH]c1=O` [Example 25, 5-[4-[(2-ethyl-5-fluoro-3-oxo-4H-quinoxalin-6-yl)methyl]piperazin-1-yl]pyridine-2-carboxamide] was run?
The IC50 was 0.297 µM.

How did the IC50 (BRCA2 (−/−) DLD1 cells) turn out when `CCc1nc2ccc(CN3CCN(c4ccc(C(=O)NC)nc4C)CC3)c(C)c2[nH]c1=O` [Example 42, 5-[4-[(2-ethyl-5-methyl-3-oxo-4H-quinoxalin-6-yl)methyl]piperazin-1-yl]-N,6-dimethyl-pyridine-2-carboxamide] was run?
The IC50 was 0.006 µM.

Which IC50 (hERG) does the source give for `CCc1nc2ccc(CN3CCN(c4ccc(C(=O)NC)nc4Cl)CC3)c(F)c2[nH]c1=O` [Example 28, 6-chloro-5-[4-[(2-ethyl-5-fluoro-3-oxo-4H-quinoxalin-6-yl)methyl]piperazin-1-yl]-N-methyl-pyridine-2-carboxamide] here?
Its IC50 is > 38 µM.

What about the IC50 (BRCA2 (−/−) DLD1 cells) of the same compound?
The IC50 was 0.004 µM.

Which IC50 (BRCA2 (−/−) DLD1 cells) does the source give for `CNC(=O)c1ccc(N2CCN(Cc3ccc4ncc(=O)[nH]c4c3F)CC2)c(Cl)n1` [Example 34, 6-chloro-5-[4-[(5-fluoro-3-oxo-4H-quinoxalin-6-yl)methyl]piperazin-1-yl]-N-methyl-pyridine-2-carboxamide] here?
The IC50 was 8.44 µM.

What does the source list for `CNC(=O)c1ccc(N2CCN(Cc3ccc4nc(C)c(=O)[nH]c4c3F)CC2)c(C(F)F)n1` [Example 21, 6-(difluoromethyl)-5-[4-[(5-fluoro-2-methyl-3-oxo-4H-quinoxalin-6-yl)methyl]piperazin-1-yl]-N-methyl-pyridine-2-carboxamide]?
IC50 (hERG): > 40 µM; IC50 (BRCA2 (−/−) DLD1 cells): 1.42 µM

How did the IC50 (BRCA2 (−/−) DLD1 cells) turn out when `CCNC(=O)c1ccc(N2CCN(Cc3ccc4nc(C)c(=O)[nH]c4c3F)CC2)c(C)n1` [Example 46, N-ethyl-5-[4-[(5-fluoro-2-methyl-3-oxo-4H-quinoxalin-6-yl)methyl]piperazin-1-yl]-6-methyl-pyridine-2-carboxamide] was run?
Its IC50 is 0.013 µM.

How did the IC50 (hERG) turn out when `CNC(=O)c1ccc(N2CCN(Cc3ccc4nc(C(C)(F)F)c(=O)[nH]c4c3F)CC2)c(C)n1` [Example 19, 5-[4-[[2-(1,1-difluoroethyl)-5-fluoro-3-oxo-4H-quinoxalin-6-yl]methyl]piperazin-1-yl]-N,6-dimethyl-pyridine-2-carboxamide] was run?
Its IC50 is > 40 µM.

And the IC50 (BRCA2 (−/−) DLD1 cells)?
The IC50 was 0.006 µM.

With `CNC(=O)c1ccc(N2CCN(Cc3ccc4ncc(=O)[nH]c4c3F)CC2)cn1` [Example 33, 5-[4-[(5-fluoro-3-oxo-4H-quinoxalin-6-yl)methyl]piperazin-1-yl]-N-methyl-pyridine-2-carboxamide] as the compound, how does the IC50 (BRCA2 (−/−) DLD1 cells) read?
The IC50 was > 30 µM.
